Measurements reported in article PMC8222254, “Self-assembly of an anion receptor with metal-dependent kinase inhibition and potent in vitro anti-cancer properties” (Nature Communications, 2021).
Values joined by “and” are separate entries in the source; they are usually repeats but may differ in a detail not shown here. Identical values can stand only once. Like-named read-outs stand apart in the source and are kept apart here.

Tests used:
[1] = system: NP1 adult brain neural progenitor cells; assay: Chemosensitivity, 96 h continuous exposure, MTT assay; assay type: cell-based, human
Procedure, shortened: (§1)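 Cells were seeded overnight at 37 °C (2 × 10^3/well; GBM1 at 3 × 10^3/well on poly-L-ornithine/laminin in Neurobasal with hFGF/rhEGF), then exposed to compound concentration ranges for 96 h. Viability was read by MTT (4 h, formazan in DMSO, A540) and IC50 taken from dose–response curves.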

[2] = system: GBM1 glioblastoma cancer stem cell model; assay: as above; assay type: cell-based, human; details: for IC50: GBM1, 96 h, MTT; for Selectivity Index using the NPI non-cancer cell line: IC50 NP1 / IC50 GBM1; for SI (ARPE19): mean IC50 ARPE-19 / mean IC50 GBM1; for SI (MCF10A): mean IC50 MCF10A / mean IC50 GBM1; for SI (NPI): mean IC50 NP1 / mean IC50 GBM1;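 on SI (NPI): adult human brain neural progenitor non-cancer cells from an epilepsy surgery patient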;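 on Selectivity Index using the NPI non-cancer cell line: adult human brain neural progenitor non-cancer cells from an epilepsy surgery patient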
Procedure, shortened: as §1

[3] = target: T1, recombinant human AMPK (α1β2γ1) (Homo sapiens, UniProt Q13131); assay: Substrate competition assay (ADP-Glo Kinase Assay); assay type: biochemical
T1 construct: purchased Promega

HCT116 p53+/+ = assay: Immunoblotting of whole cell protein lysates; assay type: cell-based, human
Procedure: ARPE-19 and HCT116 p53^+/+ cells were seeded at a density of 3 × 10^5 (ARPE-19) or 5 × 10^5 (HCT116 p53^+/+) in T25 flasks. 24 h after seeding, cells were treated with 10 µM of [L2Cu3]^6+, [L2Zn3]^6+, or vehicle control for 4 h (Fig. 8b) or 5 μM of [L2Cu3]^6+, [L2Zn3]^6+, or vehicle control for 40 h (Fig. 10). Cells were then harvested and lysed in RIPA buffer (Sigma) with the protein concentration of lysates determined by the BCA assay.
Protein lysates and recombinant proteins were resolved on 15% SDS polyacrylamide gels. Proteins were electroblotted onto nitrocellulose membrane by wet transfer in 1xTris Glycine buffer (Biorad) at 35 mA overnight at room temperature. After blocking of membranes, these were incubated with primary antibody overnight at 4 °C before addition of rabbit or mouse secondary antibody (HRP-conjugated; 1:5000, Dako P0448 or P0260) for 1 h at room temperature and development of blots by enhanced chemiluminescence. Primary antibodies were: anti-Src (total) (Cell Signalling Technology #2123 1:1000), anti-phosphorylated Src (Y527) (Cell Signalling Technology #21055 1:1000), anti-phosphorylated Src (Y416) (Cell Signalling Technology #69435 1:1000), anti-AMPKα (total) (Cell Signalling Technology #2532 1:1000), anti-phosphorylated AMPKα (T172) (Cell Signalling Technology #2535 1:1000), anti-AMPKβ1 (total) (Cell Signalling Technology #4150 1:1000), anti-phosphorylated AMPKβ1 (S108) (abcam ab156890 1:500), anti-phospho-Tyr (pan) (Cell Signalling Technology #8954 1:2000), anti-p53 (Santa Cruz, DO-1 clone, 1:1000,), anti-phosphorylated LDH-A (Y10) (Cell Signalling Technology #8176 1:1000), anti-LDH-A/B (total) (abcam ab134187 1:5000), anti-β-actin (Merck MAB1501, 1:40,000). Quantification of signals was performed by densitometry using Image J software. Uncropped and unprocessed scans are provided in the Source Data file.

[4] = NP1, 96 h, MTT, individual run, read-out: IC50 values for each replicate
[5] = NP1, 96 h, MTT, mean of at least 3 independent experiments, read-out: Mean IC50
[6] = NP1 non-cancer, read-out: Mean IC50 values
[7] = individual run, read-out: IC50 values for each replicate
[8] = mean of at least 3 independent experiments, read-out: Mean IC50

T1 sequence (Q13131 whole entry): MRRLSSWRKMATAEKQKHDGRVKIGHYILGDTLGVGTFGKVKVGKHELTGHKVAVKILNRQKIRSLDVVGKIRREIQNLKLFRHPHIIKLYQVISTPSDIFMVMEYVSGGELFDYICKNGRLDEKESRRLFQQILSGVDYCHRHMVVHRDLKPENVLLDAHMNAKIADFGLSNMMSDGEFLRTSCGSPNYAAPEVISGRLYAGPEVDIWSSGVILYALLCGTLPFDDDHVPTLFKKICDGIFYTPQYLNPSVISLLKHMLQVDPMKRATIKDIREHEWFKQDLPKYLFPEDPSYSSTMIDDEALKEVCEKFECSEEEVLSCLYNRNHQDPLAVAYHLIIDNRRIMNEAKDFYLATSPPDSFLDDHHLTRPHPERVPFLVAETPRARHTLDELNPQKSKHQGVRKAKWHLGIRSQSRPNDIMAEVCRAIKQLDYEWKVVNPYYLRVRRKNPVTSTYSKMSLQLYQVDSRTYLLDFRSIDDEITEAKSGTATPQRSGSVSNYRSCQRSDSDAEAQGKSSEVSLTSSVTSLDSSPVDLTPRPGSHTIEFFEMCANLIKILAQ
T1 sequence (O43741 whole entry partner): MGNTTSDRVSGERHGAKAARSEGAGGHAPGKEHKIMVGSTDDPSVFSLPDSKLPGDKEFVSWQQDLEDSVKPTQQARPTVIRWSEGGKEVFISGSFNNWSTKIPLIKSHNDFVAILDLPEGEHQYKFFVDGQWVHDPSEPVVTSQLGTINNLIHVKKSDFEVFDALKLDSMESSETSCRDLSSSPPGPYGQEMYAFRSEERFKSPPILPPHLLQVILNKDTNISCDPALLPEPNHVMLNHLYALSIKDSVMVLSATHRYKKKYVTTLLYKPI
T1 sequence (P54619 whole entry partner): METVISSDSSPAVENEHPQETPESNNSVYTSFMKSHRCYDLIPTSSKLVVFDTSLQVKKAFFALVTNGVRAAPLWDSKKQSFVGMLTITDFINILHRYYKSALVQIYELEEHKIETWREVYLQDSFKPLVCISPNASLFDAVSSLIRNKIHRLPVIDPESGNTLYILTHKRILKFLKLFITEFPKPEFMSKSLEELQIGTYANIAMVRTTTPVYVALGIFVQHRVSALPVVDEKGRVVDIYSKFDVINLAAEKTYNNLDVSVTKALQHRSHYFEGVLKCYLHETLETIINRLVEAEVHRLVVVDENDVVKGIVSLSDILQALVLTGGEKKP

Structure (SMILES) | IC50 [1, 4] | IC50 [1, 5] | IC50 [1, 6] | IC50 [2, 7] | IC50 ([2]; mean of at least 3 independent experiments, listed as [L2Zn3]^6+, read-out: Mean IC50) | IC50 [2, 8] | Selectivity Index using the NPI non-cancer cell line [2] | SI (ARPE19) [2] | SI (MCF10A) [2] | SI (NPI) [2] | %AMPK Activity Remaining, Mean (data for the bars) ([3]; Substrate 0.5 mg/ml as printed) | %AMPK Activity Remaining, Mean (data for the bars) ([3]; Substrate 20 mg/ml as printed) | %AMPK Activity Remaining, Mean (data for the bars) ([3]; Substrate 200 mg/ml as printed) | %AMPK Activity Remaining, Mean (data for the bars) ([3]; Substrate 500 mg/ml as printed) | cellular levels of T172P of AMPKα relative to total AMPKα (HCT116 p53+/+; HCT116, 5 µM, 40 h) | increase of p53 levels (HCT116 p53+/+; HCT116, 5 µM, 40 h) | decrease in total levels of Tyr-phosphorylated proteins (HCT116 p53+/+; HCT116, 5 µM, 40 h, pan phospho-tyrosine antibody) | cellular phospho-Thr172 AMPKα levels (HCT116 p53+/+; HCT116 cancer cells, 10 µM, 4 h) | IC50 ([2]; mean of at least 3 independent experiments, listed as [L2Cu3]^6+, read-out: Mean IC50)
CC(=O)[O-].CC(=O)[O-].CC(=O)[O-].CC(=O)[O-].CC(=O)[O-].CC(=O)[O-].[Zn+2].[Zn+2].[Zn+2].c1ccc(-c2csc(NCCN(CCNc3nc(-c4ccccn4)cs3)CCNc3nc(-c4ccccn4)cs3)n2)nc1.c1ccc(-c2csc(NCCN(CCNc3nc(-c4ccccn4)cs3)CCNc3nc(-c4ccccn4)cs3)n2)nc1 [[L2Zn3]6+] | 5.77 µM and 8.9 µM and 8.86 µM | 7.78 µM | 7.78 µM | 3.23 µM and 4.44 µM and 4.32 µM | > 1 µM | 4 µM | 1.95 | 39.31 | 40.41 | 1.95 | 42.90% | 39.40% | 43.70% | 35.80% | increased | ~ 2.7 fold | ~ 10% | decreased | 
[Cu+2].[Cu+2].[Cu+2].c1ccc(-c2csc(NCCN(CCNc3nc(-c4ccccn4)cs3)CCNc3nc(-c4ccccn4)cs3)n2)nc1.c1ccc(-c2csc(NCCN(CCNc3nc(-c4ccccn4)cs3)CCNc3nc(-c4ccccn4)cs3)n2)nc1 [[L2Cu3]6+] | 39.3 µM and 45.1 µM and 44.8 µM | 43.1 µM | 43.1 µM | 5.37 µM and 4.48 µM and 5.08 µM |  | 4.97 µM | 8.67 | 10.59 | 9.71 | 8.67 | 34.60% | 17.00% | 25.40% | 17.20% |  | ~ 1.7 fold |  |  | > 1 µM
